Article PMC6357218 (Molecular Therapy Oncolytics, 2018)

Molecular target: wild-type (WT) FKBP12 (in iRC9) (Homo sapiens, UniProt P62942)
Test: Cross-activation of iRC9 apoptosis by high rimiducid in transfected HEK293 cells
Type: cell-based

wild-type (WT) FKBP12 (in iRC9), sequence (P62942 2-108): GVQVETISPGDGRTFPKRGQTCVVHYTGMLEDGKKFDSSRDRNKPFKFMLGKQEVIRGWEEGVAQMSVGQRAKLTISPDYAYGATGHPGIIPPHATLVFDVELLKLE

CC[C@H](C(=O)N1CCCC[C@H]1C(=O)O[C@H](CCc1ccc(OC)c(OC)c1)c1cccc(OCC(=O)NCCNC(=O)COc2cccc([C@@H](CCc3ccc(OC)c(OC)c3)OC(=O)[C@@H]3CCCCN3C(=O)[C@@H](CC)c3cc(OC)c(OC)c(OC)c3)c2)c1)c1cc(OC)c(OC)c(OC)c1 [Rim, rimiducid]
Cross-activation of iRC9 apoptosis by high rimiducid in transfected HEK293 cells: > 100 nM
